Experimental data reported in patent US10918713B2, “Epitopes from allergen proteins and methods and uses for immune response modulation” (LA JOLLA INSTITUTE FOR ALLERGY AND IMMUNOLOGY, priority 2012, dated 2021).
Values joined by “and” are separate entries in the source; they are usually repeats but may differ in a detail not shown here. Equal entries are not always repeated.

How the values were obtained:
[1] = system: PBMC from allergic donors; test: IL-5 ELISPOT with extract-stimulated short-term lines; assay type: cell-based, human; conditions: positive donor/peptide response
Method: (§1) Spots were counted by computer-assisted image analysis (Zeiss, KS-ELISPOT reader, Munich, Germany).
(§2) Each assay was performed in triplicate. The level of statistical significance was determined with a Student's t-test using the mean of triplicate values of the response against relevant pools or individual peptides versus the response against the DMSO control.

[2] = system: PBMC from allergic donors; test: Dual ELISPOT, total IL-5 and IFN-γ response (SFC); assay type: cell-based, human; conditions: sum of IFNg and IL-5
Method: as §1, §2

Row | Molecule | Response (SFC/10^6) IL-5 ([1]; one donor per table line) | Response (SFC/10^6) Total ([2]; one donor per table line) | Response (SFC/10^6) IL-5 ([1]; each table line is one donor) | Response (SFC/10^6) Total ([2]; each table line is one donor)
1 | 3324.1549 (SSSFPQFKSEEITNI) | 77 SFC/10^6 | 77 SFC/10^6 | – | –
2 | 3324.1594 (SDYFVGANLIVSNSA) | – | – | 920 SFC/10^6 | 920 SFC/10^6
3 | 3324.0835 (QTHSAIAVIIGIKDL) | 317 SFC/10^6 | 317 SFC/10^6 | – | –
4 | 3324.1134 (VALFAVFLGSAHGIA) | 208 SFC/10^6 | 208 SFC/10^6 | – | –
5 | 3324.1599 (EKVKIERLHPYITLY) | – | – | 260 SFC/10^6 | 260 SFC/10^6
6 | 3324.1137 (KQQGIRYANPIAFFR) | 123 SFC/10^6 | 123 SFC/10^6 | – | –
7 | 3324.0622 (DKSMKVTVAFNQFGP) | 102 SFC/10^6 | 102 SFC/10^6 | – | –
8 | 3324.0940 (QQYDIKYTWNVPKIA) | 1333 SFC/10^6 | 1333 SFC/10^6 | – | –
9 | 3324.1601 (GANLIVSNSAPRPDG) | – | – | 147 SFC/10^6 | 147 SFC/10^6
10 | 3324.0993 (VKFRMIAGQEPVHNW) | 92 SFC/10^6 | 92 SFC/10^6 | – | –
11 | 3324.1600 (EYIEAAKWLLPPPKV) | – | – | 980 SFC/10^6 | 980 SFC/10^6
12 | 3324.0827 (DNGYGYFAANIDLMM) | 53 SFC/10^6 | 53 SFC/10^6 | – | –
13 | 3324.1591 (FIFGEARSLYLNTEL) | – | – | 500 SFC/10^6 and 133 SFC/10^6 | 500 SFC/10^6 and 133 SFC/10^6
14 | CC[C@H](C)[C@H](NC(=O)[C@H](Cc1ccccc1)NC(=O)[C@H](CCCCN)NC(=O)[C@H](Cc1ccc(O)cc1)NC(=O)[C@H](CO)NC(=O)[C@@H](N)CC(=O)O)C(=O)N1CCC[C@H]1C(=O)N[C@H](C(=O)N[C@@H](CC(C)C)C(=O)N[C@H](C(=O)N[C@@H](C)C(=O)N[C@@H](C)C(=O)N[C@H](C(=O)N[C@@H](CCCCN)C(=O)N[C@@H](CCC(N)=O)C(=O)O)C(C)C)C(C)C)[C@@H](C)O [3324.1165] | – | – | 382 SFC/10^6 and 78 SFC/10^6 | 382 SFC/10^6 and 78 SFC/10^6
15 | 3324.0351 (YETETTSVIPAARLF) | 403 SFC/10^6 | 403 SFC/10^6 | – | –
16 | 3324.0979 (PDDLRSIYSRLHNLN) | 177 SFC/10^6 | 177 SFC/10^6 | – | –
17 | 3324.0356 (GLHLGGIKYMVIQGE) | 440 SFC/10^6 | 440 SFC/10^6 | – | –
18 | 3324.1640 (VTAFGFDLVRGTKTL) | – | – | 73 SFC/10^6 | 73 SFC/10^6
19 | 3324.1603 (DAYLGTSYVIVIKEP) | – | – | 290 SFC/10^6 | 290 SFC/10^6
20 | 3324.1186 (TNKAFVEGLASGYAD) | – | – | 287 SFC/10^6 | 287 SFC/10^6
21 | 3324.1183 (LKKAVTAMSEAEKEA) | – | – | 128 SFC/10^6 | 128 SFC/10^6
22 | 3324.1131 (GYVSLQEFVDLNNKG) | 80 SFC/10^6 and 420 SFC/10^6 | 80 SFC/10^6 and 420 SFC/10^6 | – | –
23 | CC[C@H](C)[C@H](N)C(=O)N[C@H](C(=O)N[C@@H](CC(C)C)C(=O)N[C@@H](CC(N)=O)C(=O)N[C@@H](Cc1c[nH]cn1)C(=O)N[C@@H](CCSC)C(=O)N[C@H](C(=O)NCC(=O)N[C@@H](C)C(=O)N[C@@H](CCC(N)=O)C(=O)N[C@@H](CO)C(=O)NCC(=O)N[C@@H](CCCCN)C(=O)NCC(=O)N[C@H](C(=O)O)[C@@H](C)O)[C@@H](C)O)C(C)C [3324.0987] | 507 SFC/10^6 | 507 SFC/10^6 | – | –
24 | 3324.0612 (TISNNHFFNHHKVML) | 542 SFC/10^6 | 542 SFC/10^6 | – | –

Row | Molecule | Response (SFC/10^6) IL-5 ([1]; one donor per table line) | Response (SFC/10^6) Total ([2]; one donor per table line) | Response (SFC/10^6) IL-5 ([1]; each table line is one donor) | Response (SFC/10^6) Total ([2]; each table line is one donor)
25 | CC[C@H](C)[C@H](N)C(=O)N[C@@H](CCC(=O)O)C(=O)N[C@@H](Cc1ccccc1)C(=O)N[C@@H](CCCNC(=N)N)C(=O)N[C@@H](Cc1ccccc1)C(=O)N[C@@H](Cc1ccc(O)cc1)C(=O)N[C@@H](CCCCN)C(=O)N[C@@H](CCC(=O)O)C(=O)N[C@H](C(=O)N[C@H](C(=O)N[C@@H](CC(N)=O)C(=O)N[C@H](C(=O)N[C@@H](Cc1ccccc1)C(=O)N[C@@H](CCCNC(=N)N)C(=O)NCC(=O)O)C(C)C)[C@@H](C)O)[C@@H](C)CC [3324.0976] | 153 SFC/10^6 and 610 SFC/10^6 | 153 SFC/10^6 and 610 SFC/10^6 | – | –
26 | 3324.0348 (RAVESYLLAHSDAYN) | 293 SFC/10^6 | 293 SFC/10^6 | – | –
27 | 3324.0970 (EFDAFVAYHIGARIV) | 123 SFC/10^6 and 763 SFC/10^6 | 123 SFC/10^6 and 763 SFC/10^6 | – | –
28 | 3324.0964 (GGEKISVAKIFAHEK) | 137 SFC/10^6 | 137 SFC/10^6 | – | –
29 | 3324.0621 (MRKVSHVILHGLHIH) | 642 SFC/10^6 | 642 SFC/10^6 | – | –
30 | CC[C@H](C)[C@H](NC(=O)[C@H](Cc1c[nH]cn1)NC(=O)[C@H](Cc1ccc(O)cc1)NC(=O)[C@H](C)NC(=O)[C@@H](NC(=O)[C@H](Cc1ccccc1)NC(=O)[C@H](C)NC(=O)[C@H](CC(=O)O)NC(=O)[C@@H](N)Cc1ccccc1)C(C)C)C(=O)NCC(=O)N[C@@H](C)C(=O)N[C@@H](CCCNC(=N)N)C(=O)N[C@H](C(=O)N[C@H](C(=O)N[C@@H](CO)C(=O)O)C(C)C)[C@@H](C)CC [3324.0971] | 187 SFC/10^6 | 187 SFC/10^6 | – | –
31 | 3324.0998 (FDFLLMERIHEQIKK) | 143 SFC/10^6 | 143 SFC/10^6 | – | –
32 | 3324.1552 (HSRNLINELSERMAG) | – | – | 118 SFC/10^6 and 190 SFC/10^6 and 57 SFC/10^6 | 118 SFC/10^6 and 190 SFC/10^6 and 57 SFC/10^6
33 | 3324.0991 (PRVMSSYFWNQIIKD) | 152 SFC/10^6 | 152 SFC/10^6 | – | –
34 | 3324.0355 (DGSVWAQSSSFPQFK) | 1953 SFC/10^6 | 1953 SFC/10^6 | – | –
35 | 3324.0529 (MAAVAFLALQLIVMA) | 283 SFC/10^6 | 283 SFC/10^6 | – | –
36 | 3324.0838 (LESVKYVQSNGGAIN) | 467 SFC/10^6 | 467 SFC/10^6 | – | –
37 | 3324.1547 (KYMVIQGEPGAVIRG) | 63 SFC/10^6 | 63 SFC/10^6 | – | –
38 | 3324.1632 (VIAELKAAGASTIQF) | – | – | 313 SFC/10^6 | 313 SFC/10^6
39 | 3324.1102 (DTCRARFITKLSEFI) | 67 SFC/10^6 | 67 SFC/10^6 | – | –
40 | CC[C@H](C)[C@H](NC(=O)[C@H](Cc1c[nH]cn1)NC(=O)[C@H](Cc1ccc(O)cc1)NC(=O)[C@H](C)NC(=O)[C@@H](NC(=O)[C@H](Cc1ccccc1)NC(=O)[C@H](C)NC(=O)[C@H](CC(=O)O)NC(=O)[C@H](Cc1ccccc1)NC(=O)[C@H](CCC(=O)O)NC(=O)[C@H](CC(=O)O)NC(=O)[C@H](Cc1c[nH]cn1)NC(=O)CNC(=O)[C@@H](NC(=O)[C@@H](N)Cc1ccc(O)cc1)C(C)C)C(C)C)C(=O)O [3324.0975] | 973 SFC/10^6 | 973 SFC/10^6 | – | –
41 | 3324.1181 (VDAAYRTAATAANAA) | – | – | 383 SFC/10^6 | 383 SFC/10^6
42 | CC[C@H](C)[C@H](NC(=O)[C@H](Cc1ccc(O)cc1)NC(=O)[C@H](CC(C)C)NC(=O)[C@@H]1CCCN1C(=O)[C@H](CCSC)NC(=O)[C@H](CC(N)=O)NC(=O)[C@H](CC(C)C)NC(=O)[C@H](CCCCN)NC(=O)[C@@H](NC(=O)[C@H](CC(N)=O)NC(=O)[C@H](CC(C)C)NC(=O)[C@@H](N)CC(N)=O)[C@@H](C)CC)C(=O)N[C@@H](C)C(=O)NCC(=O)N[C@@H](CC(N)=O)C(=O)O [3324.0523] | 1708 SFC/10^6 | 1708 SFC/10^6 | – | –
43 | 3324.0989 (SIYSRLHNLNKEFFP) | 117 SFC/10^6 | 117 SFC/10^6 | – | –
44 | 3324.0349 (TSVIPAARLFKAFFL) | 427 SFC/10^6 | 427 SFC/10^6 | – | –
45 | 3324.1602 (RTIFFDAYLGTSYVI) | – | – | 433 SFC/10^6 | 433 SFC/10^6
46 | 3324.1179 (FTVFENTFNNAIKVS) | – | – | 87 SFC/10^6 | 87 SFC/10^6
47 | 3324.0967 (IDNDIALIKLKSPMK) | 187 SFC/10^6 | 187 SFC/10^6 | – | –
